Legend:
[1] = system: MCF10A (normal breast cell line); experiment: In vitro colorimetric cell death assay (MTT); assay type: cell-based; settings: 48 hours
Experimental: (§1) It's an in vitro colorimetric assay for assessing cell viability where the cells are grown in Two-dimensional surface.
(§2) An exemplary procedure for the assay follows. Cancer cells and normal cells were plated in a 96 well plate as per predetermined plating efficiency. The plate was incubated for 24 hours in a 5% CO2 atmosphere at 37 degrees Celsius, a range of concentrations of the compounds I-1, I-2 and I-3 as well as cisplatin (known chemotherapeutic agents) were added to the separate wells, the plate was incubated further for 48 hours in a 5% CO2 atmosphere, the plate was centrifuged twice at 3000 rpm for 3 minutes, the supernatant fluid was discarded, 100 uL of 0.5 mg/mL MTT solution was added and the plate was incubated for 4 hours in a 5% CO2 atmosphere at 37 degrees Celsius. The plate was then centrifuged twice at 3000 rpm for 3 minutes, supernatant, was aspirated very carefully, 200 uL DMSO was added to each well to solubilize MTT crystals and mixed well by shaking the plate, the plate was incubated for 10 minutes in a 5% CO2 atmosphere at 37 degrees Celsius, the plate placed on the shaker of an ELISA plate reader and the absorbance at 570 nm was measured, then the percentage of viable cells remaining was calculated by first subtracting the background absorbance then comparing to the absorbance of a non-drug-treated cell sample, and the results were plotted on a graph to determine the IC50 for the compounds and cisplatin.

DU145 = experiment: In vitro colorimetric cell death assay (MTT); assay type: cell-based; settings: Homo sapiens, DU-145, 48 h
Experimental: as §1, §2

L 929 = experiment: In vitro colorimetric cell death assay (MTT); assay type: cell-based; settings: Mus musculus, L929, 48 h
Experimental: as §1, §2

[2] = In vivo maximum tolerated dose assay for compound I-1; design: species or system nude mice
Experimental: In vivo maximum tolerated dose (MTD) toxicity assay was carried out to evaluate the highest dose of a pharmaceutical treatment that will produce the desired effect without unacceptable toxicity. The purpose of administering MTD is to determine whether long-term exposure to a compound might lead to unacceptable adverse health effects in a subject, when the level of exposure is not sufficient to cause premature mortality due to short-term toxic effects.
An exemplary procedure for the in vivo maximum tolerated dose toxicity assay follows. A statistically appropriate number of male and female nude mice were injected with a single dose of either 30 mg/kg, 10 mg/kg, 5 mg/kg, and 2.5 mg/kg of a compound I-1 interperitoneally (i.p.) on day zero. The number of mice surviving from each dose group after the first through fourth days was recorded, and the Maximum Tolerated Dose (“MTD”; e.g. the dose at which 100% of the animals survived after 4 days) was determined.

HeLa = experiment: In vitro soft agar colony forming growth assay; assay type: cell-based; settings: Homo sapiens, 168 h
Experimental: (§3) The Soft Agar Assay for Colony Formation is considered the most stringent assay for detecting malignant transformation of cells. In this assay the cells are cultured in medium with low percentage of agar.
(§4) An exemplary procedure for the assay follows.

L929 = experiment: In vitro soft agar colony forming growth assay; assay type: cell-based; settings: Mus musculus, L929, 168 h
Experimental: as §3, §4

MDAMB231 = experiment: In vitro soft agar colony forming growth assay; assay type: cell-based; settings: Homo sapiens, MDA-MB-231, 168 h
Experimental: as §3, §4

cancer cell lines = experiment: In vitro colorimetric cell death assay (MTT), overall statement; assay type: cell-based
Experimental: as §1, §2

SMILES: COc1cc2c(OC3OCC(OC)C(OC)C3OC(C)=O)c3c(c(-c4ccc5c(c4)OCO5)c2cc1OC)C(=O)OC3 (centres unmarked) [I-1]
- IC50 [1]: No activity
- IC50 (DU145): 37.6 µM
- IC50 (L 929): 1.23 µM
- Number of mice surviving after injection ([2]; 2.5 mg/kg single dose i.p., day 0): 6/6
- Number of mice surviving after injection ([2]; 2.5 mg/kg single dose i.p., day 1): 6/6
- Number of mice surviving after injection ([2]; 2.5 mg/kg single dose i.p., day 2): 6/6
- Number of mice surviving after injection ([2]; 2.5 mg/kg single dose i.p., day 3): 6/6
- Number of mice surviving after injection ([2]; 2.5 mg/kg single dose i.p., day 4): 6/6
- Number of mice surviving after injection ([2]; 5 mg/kg single dose i.p., day 0): 6/6
- Number of mice surviving after injection ([2]; 5 mg/kg single dose i.p., day 1): 6/6
- Number of mice surviving after injection ([2]; 5 mg/kg single dose i.p., day 2): 6/6
- Number of mice surviving after injection ([2]; 5 mg/kg single dose i.p., day 3): 6/6
- Number of mice surviving after injection ([2]; 5 mg/kg single dose i.p., day 4): 6/6
- Number of mice surviving after injection ([2]; 10 mg/kg single dose i.p., day 0): 6/6
- Number of mice surviving after injection ([2]; 10 mg/kg single dose i.p., day 1): 4/6
- Number of mice surviving after injection ([2]; 10 mg/kg single dose i.p., day 2): 4/6
- Number of mice surviving after injection ([2]; 10 mg/kg single dose i.p., day 3): 4/6
- Number of mice surviving after injection ([2]; 10 mg/kg single dose i.p., day 4): 4/6
- Number of mice surviving after injection ([2]; 30 mg/kg single dose i.p., day 0): 4/6
- Number of mice surviving after injection ([2]; 30 mg/kg single dose i.p., day 1): 4/6
- Number of mice surviving after injection ([2]; 30 mg/kg single dose i.p., day 2): 0/6
- Number of mice surviving after injection ([2]; 30 mg/kg single dose i.p., day 3): 0/6
- Number of mice surviving after injection ([2]; 30 mg/kg single dose i.p., day 4): 0/6
- MTD ([2]; single dose i.p., nude mice): 5-10 mg/kg body weight
- dose that resulted in 100% survival of mice after 4 days ([2]; single dose i.p., nude mice): about 5 mg/kg
- IC50 (HeLa): 5.12 µM
- IC50 (L929): 3.63 µM
- IC50 (MDAMB231): 5.88 µM
- anticancer activity in cancer cell lines as compared to cisplatin (cancer cell lines): high anticancer activity

From patent publication US20150328245A1, “Agents for Eliminating Tumour-Initiating Cells” (priority 2012, published 2015)
